# Laboratory results as given in patent US20240336625A1, “SULFONIMIDAMDE COMPOUNDS AND USES THEREOF” (Genentech, Inc., priority 2021, published 2024).
# Like-named read-outs stand apart in the source and are kept apart here.
# Experiments:
# [1] = Rat Pharmacokinetic (PK) Studies; assay type: in vivo, Sprague-Dawley rats; settings: male, Sprague-Dawley, plasma; for bioavailability: 1 mg/kg PO vs 0.5 mg/kg IV cassette dose
# Description: Studies were performed at WuXi AppTech Co., Ltd (Shanghai, P.R. China). Food and water were available ad libitum except for animals that were dosed oral doses in pharmacokinetic (PK) studies, which were fasted overnight before dosing of test compounds. Six male Sprague-Dawley rats, aged 6-9 weeks with body weight of 200-300 g were obtained from Vital River Laboratory Animal Technology Co., Ltd., Beijing, P.R. China and were randomly allocated to two dose groups (3 rats were used for the IV group and 3 rats for the PO group). Animals in Group 1 were given a single IV bolus cassette dose of 0.5 mg/kg of test compounds at a dose volume of 1 mL/kg, formulated in DMSO/PEG400/Water (10/60/30). Animals in Group 2 were given a 1 mg/kg PO cassette dose of test compounds at a dose volume of 1 mL/kg, formulated in 0.5% Methyl cellulose/0.2% Tween 80 (MCT) as a suspension. Blood samples were collected via catheter at the femoral artery into tubes containing K2EDTA as an anticoagulant. Both groups were sampled at 0.033, 0.083, 0.25, 0.5, 1, 2, 4, 8 and 24 hours post-dose for blood. All samples were stored at −80° C. until analysis. The concentration of test compounds in each blood or plasma sample was determined by LC-MS/MS analysis.
# PK parameters were calculated by noncompartmental methods as described in Gibaldi and Perrier (1982) using Phoenix™ WinNonlin (Certara, Princeton, NJ) version 8.3.4.295. Parameters are presented as mean±SD. Bioavailability (F) was determined by dividing the dose-normalized area under the plasma concentration-time curve from time 0 extrapolated to infinity (AUCinf) for each animals dosed orally by the dose-normalized mean AUCinf determined from the animals dosed intravenously.
# [2] = system: NLRP3 inflammasome pathway; test: Human Whole Blood Assay (IL-1β release, LPS + ATP); assay type: cell-based; settings: read-out: HWB IC90
# Description: The ability of selected compounds to inhibit IL-1beta production in human blood was assessed in a human whole blood assay with lipopolysaccharide.
# Fresh human whole blood (HWB) was obtained from healthy donors. […] At the end of stimulation, the plates were centrifuged 2 min×3000 rpm, and supernatant transferred into fresh plates and stored at −80° C. until IL-1β analysis. IL-1b levels were measured using electrochemiluminescence immunoassay with an anti-IL-1b antibody as a primary detection agent.
# [3] = molecular target: T1, hPXR nuclear receptor (Homo sapiens, UniProt O75469); test: PXR Activation Assay; assay type: cell-based; settings: relative to positive control (rifampicin)
# T1 construct: expressed in transfected cells
# T1 sequence (O75469 1-434): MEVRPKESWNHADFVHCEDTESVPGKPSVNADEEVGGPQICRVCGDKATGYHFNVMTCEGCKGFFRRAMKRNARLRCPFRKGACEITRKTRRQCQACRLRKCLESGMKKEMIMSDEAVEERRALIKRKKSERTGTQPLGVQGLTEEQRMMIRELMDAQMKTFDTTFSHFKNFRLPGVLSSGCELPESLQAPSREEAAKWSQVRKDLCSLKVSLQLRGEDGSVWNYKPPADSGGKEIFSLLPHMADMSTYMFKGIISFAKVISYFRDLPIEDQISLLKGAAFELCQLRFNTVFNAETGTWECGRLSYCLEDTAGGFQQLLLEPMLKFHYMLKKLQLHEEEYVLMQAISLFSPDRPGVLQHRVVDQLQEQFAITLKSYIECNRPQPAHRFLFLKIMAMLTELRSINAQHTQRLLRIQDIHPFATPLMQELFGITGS
# Description: Hepatoma cells either expressing an endogenous human […] or transfected with the hPXR nuclear receptor and the corresponding response elements were seeded in a 96-well plate. Twenty-four hours after seeding, the cells were treated with six distinct concentrations of test compounds in duplicate wells, and cells then returned to the incubator for an additional 24 h. At the end of this incubation period, the number of viable cells/well was determined using Promega's Cell Titer Fluor cytotoxicity assay. Following this assay, Promega's ONE-Glo was added to the same wells and reporter gene activity assessed.
# Data processed using MS-Excel was provided as the mean (n=2) of the fold receptor activation relative to vehicle-treated cells at each of the six different doses. All activation data was normalized to the number of viable cells/well. Results were also expressed as a percentage of the response given by the appropriate positive control (rifampicin) at a 10 μM dose. EC50 and Emax values were derived for positive controls using nonlinear regression of log dose-response curves.
# [4] = system: NLRP3 dependent inflammasome pathway; test: THP-1 ASC-GFP Speck Assay; assay type: cell-based; settings: THP1-ASC-GFP; THP-1 ASC-GFP cells, LPS primed, 10 μM nigericin
# Description: Cell Culture: THP-1 ASC-GFP cell line is purchased from Invivogen, San Diego, for inflammasome activation assay. THP-1 ASC-GFP cells stably express a 37.6 kDa ASC::GFP fusion protein that enables monitoring of spec formation by microscopy after activation of NLRP3 dependent inflammasome pathway. Cells are maintained at a density of 600,000 cells/mL in growth media consisting of RPMI 1640, 2 mM L-glutamine, 25 mM HEPES and 10% heat inactivated fetal bovine serum at 37° C. and 5% CO2. Cells are passaged every 3-4 days and used for assays for up to 20 passages.
# NLRP3 inflammasome activation assay: THP-1 ASC-GFP cells are collected by centrifuging cells at 800 RPM for 5 minutes. Cell culture supernatant is removed and cells are resuspended in fresh media at density of 1×10^6 cells/mL in assay media consisting of RPMI 1640, 2 mM L-glutamine, 25 mM HEPES and 10% heat inactivated fetal bovine serum.
# Phorbol 12-myristate 13-acetate (PMA) (Invivogen, tlrl-pma) is added to the cell suspension at a final concentration of 500 ng/ml and mixed thoroughly. 40,000 cells are added per well of a 384 well plate and differentiated into macrophages overnight at 37° C. and 5% CO2. […]
# Imaging ASC-GFP specks: THP-1 ASC-GFP cells are imaged in 488 and Hoechst channels. […] Percentage of cells with a spec is calculated by dividing the number of GFP positive spots by total number of cells.
# [5] = read-out: Rat Half Life (converted)
# [6] = Homo sapiens, LPS 200 ng/mL, ATP 1.75 mM, IL-1β
SMILES,bioavailability [1] [%],"half-life [1, 5] [h]","IC90 [2, 6] [nM]",IC90 ([2]; Homo sapiens) [nM],% PXR activation @ 10 μM [3] [%],"IC90 ([2]; LPS 200 ng/mL, ATP 1.75 mM, IL-1β) [nM]",half-life ([1]; read-out: half life) [h],IC50 [4] [nM]
"C[C@]1(CO)Cn2ncc([S@](N)(=O)=NC(=O)Nc3c4c(cc5c3CC5)CC4)c2O1 [Compound 2, (R,2R)-2-(hydroxymethyl)-2-methyl-N′-(tricyclo[6.2.0.0^3,6]deca-1,3(6), 7-trien-2-ylcarbamoyl)-2,3-dihydropyrazolo[5,1-b]oxazole-7-sulfonimidamide]",53,> 2,43,< 100,,,,
"CC1(CO)COc2c(S(N)(=O)=NC(=O)Nc3c4c(cc5c3CCC5)CCC4)cnn2C1 (single isomer, unassigned) [XK]",,,,,4,560,,
"CC1(CO)COc2c(S(N)(=O)=NC(=O)Nc3c4c(cc5c3CCC5)CCC4)cnn2C1 (single isomer, unassigned) [XJ]",,,700,,2.4,,,
"C[C@]1(CO)Cn2ncc([S@](N)(=O)=NC(=O)Nc3c4c(c(F)c5c3CC5)CC4)c2O1 [Compound 6, (R,2R)-N′-((7-fluorotricyclo[6.2.0.0^3,6]deca-1,3(6),7-trien-2-yl)carbamoyl)-2-(hydroxymethyl)-2-methyl-2,3-dihydropyrazolo[5,1-b]oxazole-7-sulfonimidamide]",48,1.8,55,< 100,,,> 1.5,
CC1(C)COc2c(S(N)(=O)=NC(=O)Nc3c4c(cc5c3CCC5)CCC4)cnn2C1 (stereo not shown) [XA],45,2,480,,61,,,
NS(=O)(=NC(=O)Nc1c2c(cc3c1CCC3)CCC2)c1cnn2c1OCC(O)C2 (stereo not shown) [XM],,,2400,,2.4,,,
CC1(C)COc2c(S(N)(=O)=NC(=O)Nc3c4c(cc5c3CC5)CC4)cnn2C1 (stereo not shown) [XE],126,,520,,63,,,
CC1(C)Cn2ncc(S(N)(=O)=NC(=O)Nc3c4c(cc5c3CC5)CCC4)c2O1 (stereo not shown) [XI],39,,240,,90,,,
"C[C@@H]1COc2c(S(N)(=O)=NC(=O)Nc3c4c(cc5c3CCC5)CCC4)cnn2C1 (single isomer, unassigned) [XG]",28,,770,,25,,,
NS(=O)(=NC(=O)Nc1c2c(cc3c1CCC3)CCC2)c1cnn2c1OC(CO)C2 (stereo not shown) [XL],,,390,,3.7,,,
NS(=O)(=NC(=O)Nc1c2c(cc3c1CCC3)CCC2)c1cnn2c1OCCC2 (stereo not shown) [XD],,,1700,,22,,,
CC1(C)Cn2ncc(S(N)(=O)=NC(=O)Nc3c4c(cc5c3CCC5)CCC4)c2O1 (stereo not shown) [XB],91,0.87,290,,74,,,
"C[C@]1(CO)Cn2ncc([S@](N)(=O)=NC(=O)Nc3c4c(c(F)c5c3CC5)CC4)c2O1 (single isomer, unassigned) [Compound G]",,,,,,,,1.1
COC1CN(C2COc3c(S(N)(=O)=NC(=O)Nc4c5c(cc6c4CC6)CC5)cnn3C2)C1 (stereo not shown) [XP],33,1.9,130,,,,,
CC1(CO)Cn2ncc(S(N)(=O)=NC(=O)Nc3c4c(cc5c3CCC5)CCC4)c2O1 (stereo not shown) [XN],36,1.2,,,6.2,,,
NS(=O)(=NC(=O)Nc1c2c(cc3c1CC3)CCC2)c1cnn2c1OCCC2 (stereo not shown) [XC],,,3400,,26,,,
NS(=O)(=NC(=O)Nc1c2c(cc3c1CC3)CC2)c1cnn2c1OCC2 (stereo not shown) [XF],54,,3300,,15,,,
CC1(C)Cn2ncc(S(N)(=O)=NC(=O)Nc3c4c(cc5c3CC5)CC4)c2O1 (stereo not shown) [XH],85,1.9,130,,81,,,
"C[C@]1(CO)Cn2ncc([S@](N)(=O)=NC(=O)Nc3c4c(cc5c3CC5)CC4)c2O1 [Compound A, (R,2R)-2-(hydroxymethyl)-2-methyl-N-(tricyclo[6.2.0.0^3,6]deca-1,3(6),7-trien-2-ylcarbamoyl)-2,3-dihydropyrazolo[5,1-b]oxazole-7-sulfonimidamide]",,,,,,,,0.98
CNC1COc2c(S(N)(=O)=NC(=O)Nc3c4c(c(F)c5c3CC5)CC4)cnn2C1 (stereo not shown) [XO],32,1.3,110,,3.3,,< 1,
